Experimental data published in patent US20060135587A1, “Method and compounds for promoting healing and reducing inflammation” (priority 2002, published 2006).

What was measured:
[1] = tested on: acute Con A-induced inflammation; experiment: Acute Con A-induced inflammation (paw oedema) in mice; format: in vivo
Method: Saline solution was similarly administered to the control animals. There were 10 mice in each group. After one hour, con A at a dose of 100 mkg/20 g of body weight was administered by sub-plantar injection into the plantar aponeurosis of the left paws of mice of both the experimental and control groups. The same amount of saline splution was injected into the contralateral paws. After one hour, the mice were killed and the experimental and control paws were weighed to assess the reaction index of the inflammation in the ankle-joint (Liubimov et al, 1999).
The anti-inflammatory effect of Compound 2 and Compound 7 was compared in male mice weighing 18-22 g, using the model described in Example 9. The ED50, i.e. the dose reducing paw ooedema by 50% one hour after injection of Concanavalin A, was calculated.

[2] = tested on: cryogenic injuries of the sigmoid colon; experiment: Cryogenic damage of the colon, model of ulcerative colitis; format: in vivo, rats; details: day 7
Method: A model of cryogenic damage of the colon was used in this experiment to simulate ulcerative colitis. Cryogenic injuries of the sigmoid colon of rats were induced by pressing a metal rod of […] in diameter cooled in liquid nitrogen to the serous membrane of the colon for 10 seconds under ether anaesthesia.
Tests were performed on 67 male rats weighing 180-200 g, with 8 animals in each group. Animals were kept in separate cages, with normal food and water ad libitum. The test compounds were administered orally on the second day after the operation, and then daily until healing was complete. Compound 2 or Compound 6 was administered to test animals at a dose of 20-50 mg/kg. The following agents were used for comparison:
The nature of the healing of the ulcer injury was examined morphologically on days 1, 3 and 7. […] The inflammatory process extends beyond the injured area into the adjacent areas, and beyond the peritoneum into fatty connective tissue.

myocardial infarction = experiment: Clinical trial in subacute myocardial infarction and cardiac insufficiency (Example 23); format: in vivo, human
Method: A clinical trial of Compound 2 was carried out on 100 patients aged from 25 to 75 years during the subacute period of myocardial infarction. Each patient continued to receive the treatment which s/he had been given prior to commencement of the trial. Compound 2 was administered in addition to the previous treatment. A control group received conventional treatment, ie. nitrate, anticoagulants and/or hypotensive agents as appropriate. The results of treatment of these two groups were compared with groups of patients receiving riboxine and placebo. Compound 2 was administered over a period of three weeks from the 7th to 28th days following infarction, and was administered orally at a dose of three 0.2 g tablets per day.
The effects of treatment were monitored by 12-lead electrocardiography, using the QRS Scoring System. Haemodynamic parameters and the contractile function of the myocardium were monitored using a Toshiba ultrasound camera model SSH-60A, using conventional methods.
The effect of Compound 2 was also studied in 25 patients aged 43 to 66 years suffering from cardiac insufficiency, in comparison with riboxine or a placebo.

[3] = tested on: full-thickness skin wounds; experiment: Morphological assessment of the wound healing stages; format: in vivo, rats; details: Day 15
Text: An important indicator of wound healing is the morphology and epithelialization of the wound surface (Sarkisov et al, 1981). Samples were taken from experimental animals on the fifth, tenth and fifteenth days of the study described in Example 13, which roughly correspond to the three wound healing stages: the first traumatic inflammation stage is complete by the fifth day, the granulation tissue development stage is complete by the tenth day, and cicatrisation and epithelialization take place from the fifteenth to twentieth days. The results are illustrated in FIG. 1.
A comparative assessment of the healing of a full-thickness wound was performed on the basis of a set of morphological indicators characterising the regeneration process: […]

[4] = tested on: cryogenic ulcer of the gastric mucosa; experiment: Cryogenic gastric ulcer in rats; format: in vivo; details: for reduction of the size of lesions in the gastric mucosa: day 14
Method: The models used gastric ulcers induced by
c) Ulcer created by local wounding with a cryogenic probe using a method similar to that described above for mouth ulcers.
The compounds were administered intraperitoneally at a dose of 20 mg/kg; in the cryogenic ulcer model compound 2 was administered either intraperitoneally (10 mg/kg) or orally (20 mg/kg twice daily, ie. a total of 40 mg/kg/day) and was compared to orally-administered gastrocepin (1 mg/kg twice daily, ie. a total of 2 mg/kg/day).

[5] = tested on: carbon tetrachloride-induced liver damage; experiment: Carbon tetrachloride-induced liver damage in rats; format: in vivo; details: 20 mg/kg orally; CCl4 intoxication
Method: The prophylactic and therapeutic effects of Compound 2 on liver damage were examined in a carbon tetrachloride intoxication model. Liver dysfunction was induced by the […] injection of a liquid paraffin-based 50% carbon tetrachloride solution at a dose of 0.8 ml per 100 g of body mass daily for four days. Inbred male white rats weighing 200-220 g were treated with Compound 2 at a dose of 20 mg/kg given orally by intragastric tube on the eighth day after injection of carbon tetrachloride, and daily for four days thereafter. Control animals received carbon tetrachloride only. Animals were sacrificed 7 days after the last injection of carbon tetrachloride, when the morphological changes are most pronounced, and samples of liver were taken for histology.

rats = experiment: Acute toxicity (LD50) in rats; format: in vivo
Text: It is contemplated that in clinical use, treatment using oral tablets will take two to three weeks, with each patient receiving three tablets containing 0.6 g active compound per day.

[6] = Table 4, 0.005M dose (Compound 2 19 mg/kg, Compound 7 16.4 mg/kg) + Con A
[7] = Table 4, 0.01M dose (Compound 2 38 mg/kg, Compound 7 32 mg/kg) + Con A
[8] = Table 4, 0.015M dose (Compound 2 57 mg/kg, Compound 7 49 mg/kg) + Con A
[9] = Table 4, 0.02M dose (Compound 2 76 mg/kg, Compound 7 65.6 mg/kg) + Con A
[10] = healing effect over the course of 14 days, twice daily, oral

CC[n+]1cn(C)c(C(=O)NC)c1C(=O)NC.O=S(=O)([O-])c1ccccc1 [Compound 2, 1-methyl-3-ethyl-4,5-bis(N-methylcarbamoyl)-imidazolium benzenesulfonate]
Reaction index (%) ([1]; Table 3, 10 mg/kg intra-peritoneally one hour before Con A, male CBA mice): 10.4 ± 2.0 % | Reaction index (%) ([1]; Table 3, 50 mg/kg intra-peritoneally one hour before Con A, male CBA mice): 8.4 ± 0.9 % | Paw oedema reduction (%) [1, 6]: 66% | Reaction index (%) [1, 6]: 5.4 ± 2.0% | Paw oedema reduction (%) [1, 7]: 52% | Reaction index (%) [1, 7]: 7.7 ± 1.8% | Paw oedema reduction (%) ([1]; Table 4, 10 mg/kg + Con A): 33% | Reaction index (%) ([1]; Table 4, 10 mg/kg + Con A): 11.1 ± 3.5% | Paw oedema reduction (%) [1, 8]: 66% | Reaction index (%) [1, 8]: 5.3 ± 2.0% | Paw oedema reduction (%) [1, 9]: 77% | Reaction index (%) [1, 9]: 3.3 ± 2.0% | ED50, dose reducing paw oedema by 50% one hour after injection of Concanavalin A ([1]; male mice): 33 mg/kg | cases with complete synchronous regeneration ([2]; 20 mg/kg orally): 100% | animals with reduction of the wound area ([2]; 50 mg/kg): 67% | side effects (myocardial infarction; both patient groups): No side effects were observed in either group | recovery of the contractile function of the myocardium versus placebo or riboxine (myocardial infarction; myocardial infarction patients, three 0.2 g tablets per day orally, 7th to 28th day): recovery of the contractile function of the myocardium was more rapid | progression of cardiac insufficiency (myocardial infarction; patients suffering from cardiac insufficiency): prevented the progression of the condition | animals showing complete epithelialization of the wound [3]: 60% | animals showing incomplete epithelialization [3]: 40% | reduction of the size of lesions in the gastric mucosa ([4]; 10 mg/kg intraperitoneally): 53% | reduction of the size of lesions in the gastric mucosa ([4]; daily dose of 40 mg/kg orally): 51% | % reduction of degree of ulceration [4, 10]: 62% | Average number of lesions per animal [4, 10]: 9.4 ± 1.0 | Average mitotic index [5]: 0.021 ± 0.001 arbitrary | Elimination of glycogen from damaged zones (arbitrary) [5]: 4.9 ± 0.4 arbitrary | Necrosis of hepatocytes (arbitrary) [5]: 2.7 ± 0.3 arbitrary | LD50 (rats; given intraperitoneally): 1210 mg/kg | LD50 (rats; oral administration): more than 20000 mg/kg
